Patent US20140221472A1, “USE OF MYRICETIN OR DERIVATIVES THEREOF AS A CATHEPSIN K INHIBITOR” (JILINSHENG JINZIYUAN BIOTECHNOLOGY LTD, priority 2013, published 2014)

Experiments:
BALB/C mice = assay: Maximum tolerated dose acute toxicity test; format: in vivo; conditions: 100 g/kg body weight, single gavage, observed 2 weeks
Description: BALB/C mice were bred by Harbin Veterinary Research Institute of Experimental Animal Center, Chinese Academy of Agricultural Sciences, and the animal quality permit number is Heilongjiang-SYXK 2006-032. The selection conditions are age at 9 weeks to 10 weeks, weighing about 20 g, half male and half female.
The animal laboratory had regular air ventilation, good lighting, and constant laboratory room temperature. There were five mice per cage, and they were fed with extruded feed produced specifically for mice, with free access to drinking water.
Firstly, the acute toxicity tests were conducted on to evaluate the safety of myricetin in order to provide the basis for the therapeuticapplication of myricetin. In this study, the maximum tolerated dose acute toxicity test was used. Twenty of BALB/C mice with the healthy body weight about 20 g, half male and half femalewere selected, The clinical intended route of administration is oral, so this experiment used intragastric administration. Myricetin (purchased from Shanghai Chemical Co., Ltd. Item No. A0145, Myricetin; 3,5,7,3,4′,5′-hexahydroxyflavone, CAS No: 529-44-2. Pure and natural extracts, purity ismore than 98.5% confirmed by NMR and HPLC purity analysis) was modulated into a stick-like with distilled water. Dosed at […] body weight, gavage was conducted to the mice (about 200 mg myricetin per mouse). […]

[1] = system: type II collagen-induced arthritis mice; assay: Bovine type II collagen-induced arthritis in mice; format: in vivo
Method: Firstly, same strains and sources of animals as shown in Example 2 were selected, and total 105 of 9-week-old BALB / C mice were fed under the same conditions. There were 70 mice that each had subcutaneous injection of 200 ug of Freund's adjuvant emulsified bovine type II collagen. 15 days after the first immunization, subcutaneous injection was applied again at 200 ug per mouse with incomplete Freund's adjuvant emulsified bovine type H collagen to strengthen the immunity. After 24 days of the first injection, the 70 mice were divided into two groups, of which 35 mice were treated with myricetin intake orally 25 mg/kg body weight daily as a treated-group, while the other 35 were the model control group fed normally without myricetin. The remaining 35 mice were the normal control group without immunization and fed with normal food, used as a blank control.
Throughout the testing period, arthritis conditions of the mice and arthritic conditions after the treatment were observed. After immunization with type II collagen on mice, the conventional methods were used by measuring the degree of paw swelling (thickness) (see FIG. 3) and weight change (see FIG. 4), and myricetin therapeutic effects were monitored and evaluated throughout the procedure (0.5 mm increased thickness for one magnitude) (see FIG. 5).
On the 48 day, the blood from the heart was extracted, and the serum was separated, meanwhile all mice were killed. The mouse urinary deoxypyridinoline (urinary deoxypyridinoline) (see FIG. 6), type I collagen C telopeptide (CTX-I) (see FIG. 7) and serum cartilage oligomeric matrix protein (COMP) were examined, and histological treatment evaluation were conducted (see FIG. 8).
The mouse urinary deoxypyridinolineideoxypyridinoline kit (DPD kit from Shanghai Huyu Biotech Co., Ltd., No. HY-E3170B) was used. According to the instructions provided, iMark-BIO-RAD microplate reader (U.S. BIO-RAD) was used to detect the concentration of mouse urinary deoxypyridinoline at 450 wavelength (see FIG. 6).
Rat C-terminal peptide of type I collagen (CTX-I) ELISA Kit from Shanghai Jima Biotech Co., Ltd., NO Wk30026) was used. According to the method provided by the kit instruction, the change in the content of type I collagen C-terminal peptide in mice serum was detected to evaluate the effect that myricetin prevented type I collagen degradation by suppressing cathepsin K (see FIG. 7).
The cartilage oligomeric matrix protein ELISA kit (from Shanghai Yihan Biotech Co., Ltd., No. SU10580) was used.
After killing of the mice, the paws were fixed with 4% formaldehyde for 24 hours, then decalcificated using 500 mmol of EDTA […]. The paraffin sections were prepared using the conventional method and stained with hematoxylin / eosin staining method. […] The synovial surface almost disappeared with a rough surface in a grid pattern, and there were a large number of macrophages. […] It can be concluded that by myricetin therapeutic administration, the mice arthritis is mostly recovered (see FIG. 9).
Based on mice joint tissue sections, according to methods from Larsson et. al. (Rheumatology (Oxford), 2004, 43 (4),428-434),the therapeutic effect of myricetin on rheumatoid arthritis in mice was evaluated, as well as the degree of arthritis. Main evaluation were based on: (1) the size of the joint cavity, inflammatory cell infiltration, cartilage damage and fibrin deposition. From three individual evaluations, it was divided into three levels, which are 0 for normal, level 1 for the light degree of arthritis, level 2 for the moderate arthritis and level 3 for severe arthritis (see FIGS. 3 and 5). (2) The weight change (see FIG. 4). (3) histology examination (see FIG. 9) and evaluation (see FIGS. 10 and 11).

[2] = cited from earlier work
[3] = left in air; becomes green; cited from earlier work
cathepsin K [4] = molecular target: T1, cathepsin K (Homo sapiens, UniProt P43235); assay: Cathepsin K activity with fluorogenic substrate HD-Ala-Leu-Lys-AMC; format: biochemical; design: made in house; conditions: 100,200,500,1000 uM; fluorescence 390/460 nm; effect enhanced as concentration increased
T1 sequence (P43235 115-329): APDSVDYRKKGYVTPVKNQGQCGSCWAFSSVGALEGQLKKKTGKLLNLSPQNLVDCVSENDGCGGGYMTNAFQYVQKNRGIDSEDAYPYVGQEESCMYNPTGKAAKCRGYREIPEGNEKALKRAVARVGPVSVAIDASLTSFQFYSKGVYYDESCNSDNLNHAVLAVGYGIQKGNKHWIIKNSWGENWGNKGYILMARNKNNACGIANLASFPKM
Method: Using a Fluoroskan Ascent, recombinant cathepsin K inhibition ratios with different concentration of myricetin were calculated after completion of the reaction and the IC50 value was determined.
In order to determine the inhibitory effect of myricetin on cathepsin K activity, a cathepsin. K specific fluorogenic substrate HD-Ala-Leu-Lys-AMC (Cat. No. 104881-72-3, purchased from GL Biochem (Shanghai) Co., Ltd.) was used and Cary Eclipse fluorescence spectrophotometer (Agilent Technologies Inc., Beijing) for quantitative analysis was applied. 1 ug of cathepsin K-specific fluorogenic substrate HD-ALK-AMC, 1 ug cathepsin K, myricetin compounds dissolved in 20% ethanol with final concentrations of 100,200,500,1000 uM were added into 50 mM of phosphate buffer. An additional 50 mM of phosphate buffer (pH6.0) was added to bring a total volume of 500 uL. And the reaction sample was inhibited at 37° C. for 15 hours in a water bath. As a positive control without any candidate compound, 1 ug of cathepsin K specific fluorogenic substrate HD-ALK-AMC and 1 ug of cathepsin K, and 50 mmol phosphate buffer solution (pH6.0) were added to bring a total volume of 500 uL. […] After completion of the reaction, the samples were measured at 390 nm excitation wavelength and 460 nm emission wavelength for fluorescence intensity changes assay, and the value of cathepsin K activity was calculated.

cathepsin K [5] = molecular target: T1, cathepsin K; assay: Cathepsin K induced collagen degradation, SDS-PAGE screening; format: biochemical; design: made in house; host or cells: yeast cells (the cited Linnevers et al. method uses Pichia pastoris); conditions: 100 uM myricetin, collagen type I/II substrate, pH 6.0, 37° C., 15 hours
Description: A series of Chinese herbal medicine of monomer myricetin were purchased from Shanghai Jingke Chemical Co., Ltd.,(Cat. No. A0145, 3,5,7,3′, 4′, 5′-hexahydroxyflavone, CAS No: 529-44-2). It was purified from natural plant (the purity is more than 98.5% confirmed by NMR and HPLC purity assay) and was used as an inhibitor candidate compound. Meanwhile, collagen type I (Cat No. SU2087) and collagen type II (Cat No. SU2088) were purchased from SIGMA and were used as a substrate for cathepsin K. For screening experiments, […] and 1 ug cathepsin K were added into 50 mM phosphate buffer (pH6.0), then myricetin compounds dissolved in 20% ethanol were added with the final concentrations of 100,200,500,1000 uM, respectively, finally an additional 50 mM of phosphate buffer (pH 6.0) was added again to bring a total volume of 500 uL. The reactions were incubated at 37° C. for 15 hours in a water bath. As a positive control without any candidate compound, 100 ug collagen, […], and 50 mM phosphate buffer solution (pH6.0) were added to bring a total volume of 500 uL. […] After completion of the reactions, the reaction samples were applied to 10% SDS-PAGE gel electrophoresis, coomassie blue staining and destaining, and the intensity of the stained protein bands were analyzed. […]

O=c1c(O)c(-c2cc(O)c(O)c(O)c2)oc2cc(O)cc(O)c12 [myricetin, 3,5,7-Trihydroxy-2-(3,4,5-trihydroxyphenyl)-4H-1-benzopyran-4-one]
symptoms of poisoning and death (BALB/C mice): free of any symptoms of poisoning | arthritis symptoms (paw swelling, clinical score) ([1]; 25 mg/kg daily orally from day 24 to 48, vs immunized mice): significantly improved | degree of arthritis ([1]; 25 mg/kg p.o., compared with the model group, P<0.05): significantly reduced | concentration of urinary deoxypyridinoline ([1]; 25 mg/kg p.o., day 48, ELISA, vs control group, P<0.001): significantly lower | content of type I collagen C-terminal peptide in mice serum ([1]; 25 mg/kg p.o., day 48, ELISA, vs model control group, P<0.001): significantly lower | content of cartilage oligomeric matrix protein in mice serum ([1]; 25 mg/kg p.o., day 48, ELISA, vs model control group, P<0.005): significantly lower | synovial surface pathological changes (histology) ([1]; 25 mg/kg p.o., day 48, hematoxylin/eosin paw sections): significantly reduced pathological changes | focal hyperplasia of the synovial lining cells ([1]; end of study, ankle joint sections, hematoxylin and eosin, FIG. 9): undetectable | hind leg swelling and redness with ankle joint thickening ([1]; end of study, representative photographs, FIG. 9): attenuated | solubility in chloroform and petroleum ([2]; chloroform and petroleum): insoluble | solubility in methanol, ethanol, aceton, ethyl acetate ([2]; methanol, ethanol, aceton, ethyl acetate): soluble | solubility in water ([2]; water): slightly soluble | stability to oxidation [3]: easily oxidized | inhibitory effect on cathepsin K activity (cathepsin K [4]): significant inhibitory effect | inhibition of the cathepsin K activity (collagen degradation) (cathepsin K [5]): complete inhibition
